Measured values published in patent US20160338967A1, “SUSTAINED RELEASE DEPOT FORMULATIONS OF T[…], AND USES THEREOF” (Kineta One, LLC, priority 2013, published 2016).

What was measured:
[1] = In vivo dose response/release of ShK-186 formulated with PLG2A, blood ELISA (Example 5); design: species or system Sprague Dawley rats
Experimental: In vivo dose response of depot formulations using ShK-186 and ShK-192 with PLG2A. Preparation of depot formulations was performed as follows: 1.0 g of PLG2A was dissolved into 5.0 mL dichloromethane with mechanical stirring until the polymer was completely dissolved. A volume of 500 μL including three levels of ShK-186 (40, 20, and 10 mg/mL final concentration; in a 20 mM sodium phosphate aqueous buffer (pH 6.0) with 140 mM NaCl) was added separately into three separate PLG2A preparations and homogenized for 2 minutes with a 10×195 mm probe (26,000 rpm). The w/o emulsion was then poured into a 100 mL Pyrex® 1395 media bottle charged with 20 mL of 0.5% w/w DSS, and 20 mM phosphate (pH 7.0) water solution. The mixture was homogenized for 5 minutes at the same shear setting (26,000 rpm), with the beaker in thermal contact with melting ice (0° C.). The pH of the aqueous (external) phase was verified and adjusted if necessary to 5.0<pH<7.5.
The formulation was then removed from shear, and stirred overnight at room temperature in a fume hood to allow solvent evaporation. The next morning the suspension was filtered through a 325 mesh screen and stored at room temperature with end over end mixing to avoid settling/clumping. Immediately before use by injection, the formulations were centrifuged utilizing the appropriate volume for 8 min, 4° C. at 2,000 g. The solid particles settled to the bottom, allowing for decanting of the almost clear supernatant, followed by replacement of aqueous solution with an appropriate volume and composition (e.g. PBS), followed by mechanical mixing to resuspend the particles.
Sprague Dawley rats (females, ages 8-16 weeks, n=3) were given a SC injection of 1 mL of the indicated depot formulations. Blood was drawn at various time points and assayed for ShK-186 by ELISA methods.
In a repeat experiment, the time during which blood levels of ShK-186 were monitored was extended.

[2] = tested on: chronic relapsing/remitting autoimmune encephalomyelitis rat model; experiment: Chronic relapsing/remitting autoimmune encephalomyelitis rat model (clinical scoring); format: in vivo, dark agouti rats; conditions: single injection of PLG2A depot formulation, 1,000-40,000 μg/kg; prevention and treatment models
Experimental: Therapeutic efficacy of ShK-186 and ShK-192 depot formulations in animal models of autoimmune disease including the chronic relapsing/remitting autoimmune encephalomyelitis rat model. Chronic relapsing/remitting autoimmune encephalomyelitis (CR-EAE) is induced by SC injection of spinal cord homogenate (Bioreclamation, Inc.) and CFA to dark agouti rats (Harlan). Animals typically recover by 30 days after onset of CR-EAE. Rats are treated with different amounts of ShK-186 or ShK-192 (1, 3, 5, 10, and 100 μg/kg) in SC injections daily, every two days, or every three days at different time points prior to and after elicitation of CR-EAE by immunization. These regimens are compared to single injection of depot formulations (ShK-186 or ShK-192 with PLG2A) at doses of 1,000 μg/kg, 5,000 μg/kg, 10,000 μg/kg, 20,000 μg/kg, or 40,000 μg/kg given at the beginning of the experiment (time immunization, prevention model) and after onset of disease, i.e., after a rat has a clinical score of 1 or greater (treatment model).
The efficacy of the treatments is measured by clinical scoring of the severity of CR-EAE in daily and depot formulation-treated rats. […] Subsets of rats are sacrificed at specific time points of the experiment to harvest tissues or to collect whole blood samples.

[3] = tested on: delayed type hypersensitivity rat model; experiment: Delayed type hypersensitivity rat model (ear induration); format: in vivo, Lewis rats; conditions: single injection of PLG depot formulation on day 0, 1,000-40,000 μg/kg; versus daily SC injection in buffer P6N
Experimental: Therapeutic efficacy of ShK-186 and ShK-192 depot formulations in animal models of autoimmune disease including the delayed type hypersensitivity rat model. Lewis rats are vaccinated by SC administration to the base of the tail with 100 μg ovalbumin mixed 1:1 (v/v) in Complete Freund's Adjuvant (CFA) (OVA/CFA, 200 μL volume) on day 0 using a 20 G×1% needle. Delayed-type hypersensitivity (DTH) is elicited in the ear on Day 7 by injection of 20 μg OVA in 10 μL to the pinna of the ear of isoflurane-anesthetized animals using 29 G×1 needles. DTH is evaluated on Days 8 and 9 by measuring the induration of the site of antigen injection with a micrometer (caliper). Control treatments with ShK-186 or ShK-192 include SC injections of ShK-186 or ShK-192 at 100 μg/kg, 10 μg/kg, 3 μg/kg or 1 μg/kg given on day 0-7 (daily from the initial immunization). The control treatments are compared to a single injection of a depot formulation of ShK-186 or ShK-192 using a PLG polymer-based (in one example, PLG2A) sustained formulations at a dose of 1,000 μg/kg, 5,000 μg/kg, 10,000 μg/kg, 20,000 μg/kg, or 40,000 μg/kg given on day 0 (time of immunization).

[4] = In vivo release of ShK-192 formulated with PLG2A, blood ELISA (Example 5); design: species or system Sprague-Dawley rats; conditions: PLG2A depot formulation, 10,000 μg/kg, single SC injection, n=3 (FIG. 7)
Experimental: The next part of this Example was performed to test formulation and in vivo release of ShK-192 over extended time durations. Similar to the methods used for ShK-186, 1.0 g of PLG2A was dissolved into 5.0 mL dichloromethane with mechanical stirring until the polymer was completely dissolved. A volume of 500 μL including a low dose of ShK-192 (10 mg/mL final concentration; in a 20 mM sodium phosphate aqueous buffer (pH 6.0) with 140 mM NaCl) was formulated by homogenizing for 2 minutes with a 10×195 mm probe (26,000 rpm). The w/o emulsion was then transferred into a 100 mL Pyrex® 1395 media bottle charged with 20 mL of 0.5% w/w DSS, 20 mM phosphate (pH 7.0), water solution.
The mixture was held in thermal contact with ice water (0° C.) and homogenized for 5 minutes at 26,000 rpm, with the final pH of the aqueous (external) phase verified and adjusted to 5.0<pH<7.5. The formulation was then removed from homogenization and mechanically stirred overnight at room temperature in a fume hood to permit solvent evaporation. The next day the suspension was first filtered through a 325 mesh screen, then stored at room temperature with end over end mixing to minimize settling/clumping. Immediately before in vivo use, the formulations were centrifuged utilizing the appropriate volume for 8 minutes, at 4° C. at 2,000 g. […]

## (L-PhosphoTyr)-AEEAc-RSCIDTIPKSRCTAFQCKHSMKYRLSFCRKTCGTC-amide [ShK-186]
[1]; 40,000, 20,000 and 10,000 μg/kg (FIG. 6)
  shape of in vivo release profiles across doses: geometrically similar, but scaled by the area under the curve to the total dose
[1]; single SC dose (1 mL) 20,000 μg/kg, repeat experiment (FIG. 8)
  duration of sustained in vivo release: at least 56 days
[1]; single SC injection, 40,000, 20,000 and 10,000 μg/kg, n=3 (FIG. 6)
  time blood serum levels are maintained: more than 30 days
[2]
  reduction in clinical scores of CR-EAE: significant therapeutic effects
[3]
  reduction of induration (inflammatory response) in DTH: significant therapeutic effect

## (Para-phosphono-Phe)-AEEAc-RSCIDTIPKSRCTAFQCKHS(Nle)KYRLSFCRKTCGTC-amide [ShK-192]
[4]
  duration of release from depot formulation: over 30 days
  time of maximum concentration: ~12 days
[2]
  reduction in clinical scores of CR-EAE: significant therapeutic effects
[3]
  reduction of induration (inflammatory response) in DTH: significant therapeutic effect
